Read-outs that look alike come from different tables or passages of the source.
System: T1, laccase cocktail (LacI/LacII) from Pycnoporus sanguineus CS43
T1 construct: gene Lac I; native secreted enzymes
Test: transformation rates at varied EDC concentration, Michaelis-Menten fit (HPLC-UV)
Type: biochemical, Trametes sanguinea
Details: free laccase cocktail (two isoforms), 100 U/L, pH 5 McIlvaine buffer, 25 °C, no mediator, read-out: Catalytic parameters / K m /
From the text: transformation rates at varied EDC concentration, Michaelis-Menten fit (HPLC-UV) on laccase cocktail (LacI/LacII) from Pycnoporus sanguineus CS43

Row | Compound | Km (called Kapp in the text) [µM] | Km (apparent Km) [µM]
1 | CC(C)(c1ccc(O)cc1)c1ccc(O)cc1 [BPA, bisphenol A] | 482 | –
2 | C#C[C@]1(O)CC[C@H]2[C@@H]3CCc4cc(O)ccc4[C@H]3CC[C@@]21C [EE2, 17-α-ethynylestradiol] | – | 32
3 | CCCCCCCCCc1ccc(O)cc1 [NP, 4-nonylphenol] | – | 73.6
4 | Oc1cc(Cl)ccc1Oc1ccc(Cl)cc1Cl [TCS, triclosan] | – | 302

From article PMC4498228, “Biotransformation of Endocrine-Disrupting Compounds in Groundwater: Bisphenol A, Nonylphenol, Ethynylestradiol and Triclosan by a Laccase Cocktail from Pycnoporus sanguineus CS43” (Water, Air, and Soil Pollution, 2015)
